pEC50, pIC50: −log10 of the molar value.
Tests used:
[1] = system: HIV-1 replication in H9 cells; assay: HIV-1 replication inhibition in acutely infected H9 lymphocytes (p24 antigen ELISA); format: cell-based, HIV-1 (IIIB strain); settings: for pEC50: Human immunodeficiency virus 1, H9, acutely infected H9 cells; for anti-HIV activity in H9 cells (in words): acutely infected H9 cells
Method: (§1) HIV inhibition assay. The HIV inhibition was measured as described herein. Briefly, H9 cells, a T cell line, (3.5×10^6 cells/ml) were incubated in the presence or absence of HIV-1 (IIIB strain, 0.01-0.1 TCID50 /cell) for 1 hour at 37° C. Cells were washed thoroughly and resuspended at a final concentration of 2×10^5 cells/ml in the presence or absence of compound. After incubation for 3-4 days at 37° C., the cell density of uninfected cultures was determined by cell count to assess toxicity of the drug. An aliquot of each cell-free supernatant was assayed by p24 antigen ELISA to quantitate the amount of HIV-1 present in the infected cultures. Test compounds were considered to be active at a particular concentration if p24 antigen levels were less than 70% of infected, untreated controls and were nontoxic to uninfected H9 cells.
(§2) HIV Growth Inhibition Assay: The T cell line, H9, and the promonocytic cell line, U937, were maintained separately in continuous culture with complete medium (RPMI 1640 and […] fetal calf serum (FCS) at 5% CO2 and 37° C. Cell lines were used in experiments only when in log phase of growth; whereas, uninfected peripheral blood mononuclear cells (PBMCs) were first stimulated with PHA (1 μg/ml) for 3 days. All cell targets were incubated with HIV-1 (IIIB isolate, TCID50 10 ^4 IU/mi, at a multiplicity of infection of 0.1-0.01 IU/cell) for 1 hour at 37° C. and 5% CO2. The cell lines and PBMCs were washed thoroughly to remove unabsorbed virions and resuspended at 4×10^5 cells/ml in complete medium or complete medium with 10% v/v interleukin […] IL-2, respectively. Aliquots ( ml) were placed in wells of 24-well culture plates containing an equal volume of test compound (diluted in the appropriate culture medium). After incubation for 4 days at 37° C., cell density of uninfected cultures was determined by counting cells in a Coulter counter to assess toxicity of the test compound. A p24 antigen ELISA assay was used to determine the level of virus released in the medium of the HIV-infected cultures. The p24 antigen assay uses a HIV-1 anti-p24 specific monoclonal antibody as the capture antibody coated-on 96-well plates. Following a sample incubation period, rabbit serum containing antibodies for HIV-1 p24 is used to tag any p24 "captured" onto the microtiter well surface. Peroxidase conjugated goat anti-rabbit serum is then used to tag HIV-1 p24 specific rabbit antibodies which have complexed with captured p24. […] The cut-off for the p24 ELISA assay is 12. pg/ml. P24 in the culture medium was quantitated against a standard curve containing known amounts of p24. The effective (EC50) and inhibitory (IC50) concentrations (for anti-HIV activity and cytotoxicity, respectively) were determined graphically. Both the EC50 and IC50 values were calculated by plotting drug concentration versus percent inhibition, and then identifying a 50% inhibition value from the graph.

[2] = system: uninfected H9 cells; assay: Toxicity to uninfected H9 cells (cell growth); format: cell-based; settings: for IC50 / pIC50: Homo sapiens; for IC50: concentration which inhibits uninfected cell growth by 50%; for pIC50: H9, concentration which inhibits uninfected cell growth by 50%
Method: as §1, §2

[3] = system: HIV-1 replication in H9 cells; assay: Combination study of suksdorfin with AZT, ddI and ddC: HIV-1 replication in acutely infected H9 cells; format: cell-based, HIV-1 (IIIB); settings: for EC50 / IC50: Human immunodeficiency virus 1, H9; for EC50 / IC50 / Therapeutic Index: combinations with 4 μg/ml suksdorfin; for EC50: read-out: EC50; for IC50: concentration which inhibits viral replication by 50%, read-out: IC50 (μM)^b
Method: as §2, with “surface.” for “surface. Peroxidase conjugated goat anti-rabbit serum is then used to tag HIV-1 p24 specific rabbit antibodies which have complexed with captured p24.”, “The effective (EC50) and inhibitory (IC50) concentrations (for anti-HIV activity and cytotoxicity, respectively) were determined graphically.” left out
Combination Study: The experimental design is identical to the growth inhibition assay except that various concentrations of AZT, ddI or ddC were also added to cultures of acutely HIV-1 infected H9 cells that either have or have no received different concentrations of suksdorfin. The concentrations of AZT, ddI and ddC were 5 ten-fold dilutions starting at 1 μg/ml. [drawing 104] [drawing 105]

[4] = system: uninfected H9 cells; assay: Combination study of suksdorfin with AZT, ddI and ddC: toxicity to uninfected H9 cells; format: cell-based; settings: Homo sapiens, H9, combinations with 4 μg/ml suksdorfin
Method: Pharm. Asso. […] Aliquots ( ml) were placed in wells of 24-well culture plates containing an equal volume of test compound (diluted in the appropriate culture medium). After incubation for 4 days at 37° C., cell density of uninfected cultures was determined by counting cells in a Coulter counter to assess toxicity of the test compound. A p24 antigen ELISA assay was used to determine the level of virus released in the medium of the HIV-infected cultures. The p24 antigen assay uses a HIV-1 anti-p24 specific monoclonal antibody as the capture antibody coated-on 96-well plates. Following a sample incubation period, rabbit serum containing antibodies for HIV-1 p24 is used to tag any p24 "captured" onto the microtiter well surface. […] The cut-off for the p24 ELISA assay is 12. pg/ml. P24 in the culture medium was quantitated against a standard curve containing known amounts of p24. The effective (EC50) and inhibitory (IC50) concentrations (for anti-HIV activity and cytotoxicity, respectively) were determined graphically.
Combination Study: The experimental design is identical to the growth inhibition assay except that various concentrations of AZT, ddI or ddC were also added to cultures of acutely HIV-1 infected H9 cells that either have or have no received different concentrations of suksdorfin.

[5] = IC50 for cell growth inhibition divided by EC50 for HIV inhibition, H9
[6] = Table 16, concentration which inhibits uninfected cell growth by 50%, read-out: IC50 (μM)^a

SMILES | Therapeutic Index [1, 5] | Therapeutic Index ([1]; Table 14) | EC50 ([3]; Table 5) [µg/mL] | IC50 ([3]; Table 16) [µg/mL] | Therapeutic Index ([3]; Table 5) | Therapeutic Index ([3]; Table 16) | decrease of EC50 in presence of suksdorfin ([3]; with 4 μg/ml suksdorfin, H9) [fold] | IC50 ([4]; Table 5, read-out: IC50) [µg/mL] | IC50 [4, 6] [µg/mL] | also measured
CC1(C)O[C@H]1COc1c2ccoc2cc2oc(=O)ccc12 [Oxypeucedanin, oxypeucedanin, reference compound] | > 2.2 | > 2.2 | – | – | – | – | – | – | – | pEC50 ([1]; concentration which inhibits viral replication by 50%, Inactive = No suppression of HIV-1 replication in H9 cells, read-out: EC50): 4.50; IC50 ([1]; Human immunodeficiency virus 1, Table 14, concentration which inhibits viral replication by 50%, Inactive = No suppression of HIV-1 replication in H9 cells, read-out: IC50 (μM)^b): 31.5 µM; IC50 ([2]; H9, Table 14, read-out: IC50 (μM)^a): > 69.9 µM; pIC50 ([2]; read-out: IC50): < 4.16
C/C=C(/C)C(=O)O[C@@H]1c2c(ccc3ccc(=O)oc23)OC(C)(C)[C@@H]1OC(C)=O [Pteryxin, pteryxin, reference compound] | > 3.7 | > 3.7 | – | – | – | – | – | – | – | pEC50 ([1]; concentration which inhibits viral replication by 50%, Inactive = No suppression of HIV-1 replication in H9 cells): 5.34; IC50 ([1]; Human immunodeficiency virus 1, H9, read-out: IC50 (μM)^b): 4.6 µM; anti-HIV activity in H9 cells (in words) [1]: slightly reduced anti-HIV-l activity; anti-HIV activity in H9 cells (in words) ([1]; listed as pteryxn): slightly reduced anti-HIV-1 activity; increase of toxicity on replacing 4'-isovaleryl by angeloyl (versus suksdorfin) ([2]; H9 cells): 5 fold; pIC50 [2]: < 4.98; IC50 ([2]; H9, read-out: IC50 (μM)^a, Table 14): > 10.4 µM
Nc1ccn([C@H]2CC[C@@H](CO)O2)c(=O)n1 [ddC, dideoxycytidine] | – | – | 0.004 | 0.004 | > 250 | > 250 | 40 | > 1 | > 1 | –
O=c1[nH]cnc2c1ncn2[C@H]1CC[C@@H](CO)O1 [ddI] | > 400 | – | 0.4 | 0.4 | > 2.5 | > 2.5 | 4000 | > 1 | > 1 | reduction of amount of nucleoside needed in presence of suksdorfin ([3]; with 4 μg/ml suksdorfin, H9): 4000 fold

From patent US6319929A, “Suksdorfin analogs, compositions thereof, and methods for making and using thereof” (priority 1998, dated 2001)
